The source of these data is article PMC10353061 (ACS Pharmacology & Translational Science, 2023).

Data set [1] relates to Wnt/β-catenin signaling pathway. Nature of the data set: Topflash/Fopflash luciferase report assay in HCT116 cells. Format: cell-based, human. The following applies: 30 μM. The source says:
We synthesized derivatives 5–10 bearing 5-membered and 6-membered heterocyclic rings at the position 3′ or 4′ of the B phenyl ring. […] SW480 cells show higher Wnt activation compared to HCT116 cells.[28] […] In SW480 cells, compounds 5–10 were in the 1.75%(10)–7.32%(7) range of residual luciferase activity, except 6(28.46%), compared to 3(21.61%); in HCT116 cells, compounds 5–10 were in the 0.37%(7)–5.88%(5) range, compared to 3 (18.75%) (Table 1 and Figure 5).
Figure 5 Residual luciferase activity (%) by compounds 5–10 and reference compound 3 in SW480 cells (left panel) and HCT116 cells (right panel). Data are represented as the mean ± SD of three independent experiments, each performed in triplicate.
Briefly, the Topflash plasmid (Beyotime, Zhejiang, China) contains 7 TCF/LEF binding sites, while the Fopflash plasmid (Beyotime, Zhejiang, China) contains 6 mutated TCF/LEF binding sites, which are located in the upstream of the luciferase reporter. SW480 and HCT116 cell lines were cultured in 90% DMEM (HyClone, #SH30243.01) plus 10% fetal bovine serum (Gibco, #10270) and plasmocin (mpp-39-03, InvivoGen), respectively. The Topflash/Fopflash vector and plasmid pTK-renilla together were co-transfected to the cells. […] The Dual-Glo luciferase assay kit (Promega, #E1910) was used to measure the luminescence intensity (Figure 2).

The test system of data set [2] is β-catenin/Tcf-4 interaction. Put plainly: Co-immunoprecipitation of β-catenin and Myc-tagged Tcf-4 in HCT116 cells. It counts as cell-based, human. The settings on record: HCT116 transfected with Myc-tagged Tcf-4, LiCl 50 mM, 50 μM, 24 h. The procedure: Toward this end, we performed a co-immunoprecipitation study in HCT116 cells transfected with Myc-tagged Tcf-4, treated with the two compounds, and immunoprecipitated with Myc antisera.
HCT116 cells were transiently transfected with the Myc-tagged Tcf-4 plasmid and treated with LiCl (50 mM) and 9 (50 μM) or 10 (50 μM) for 24 h. Lysates were immunoprecipitated using Myc-agarose beads and western blot analysis was performed. […] Myc-agarose beads saturated with the Myc-blocking peptide before immunoprecipitation were used as a negative control.
Co-immunoprecipitation assays were performed as previously described.[16],[60] Briefly, 2 × 10^4/cm^2 HCT116 cells were seeded in a 100 mm dish and incubated overnight at 37 °C. Cells were transfected with pcDNA/Myc Tcf-4 (Addgene plasmid #16512; http://n2t.net/addgene:16512; RRID:Addgene_16512)[29] and, after overnight incubation, were starved for 8 h in a medium containing Opti-MEM (#31985070, Thermo Fisher Scientific), FBS 0.5%, pen/strep 1%, NaPyr 1%, NeAA 1%, and then co-treated with 50 mM LiCl and DMSO or 50 μM compound 9 or 50 μM compound […] for 24 h. Cells were collected at the end of the treatments and lysed in a buffer containing 0.5% Triton X-100, 0.5 mM EDTA, and 1 mM DTT. […] Chemioluminescence was detected using WesternBright ECL (#K-12045-D50, Advansta), according to the manufacturer’s protocol.

A further data set has as its system SW480 cells. Nature of the data set: Cell viability (XTT) of SW480 colon cancer cells. It counts as cell-based. On the procedure: PKCδ has been recognized to be a proapoptotic kinase; its cleavage and activation promote apoptotic cell death (Table 2).[33]
Cell viability was evaluated by XTT[55] (SW480 cells) or MTT[56] (HCT116 cells) colorimetric assays. Briefly, cells (range 10–30 × 10^3 cells/well) were seeded in 96-well microculture plates and then exposed to increasing concentrations of different compounds (range 0–300 μM) for 48 or 72 h. […] Absorbance at 450 nm and a reference wavelength of 650 nm was then measured using a microplate spectrophotometer (Multiskan FC Microplate Photometer, Thermo Scientific, Waltham, MA). The cell growth inhibition rate was calculated utilizing the following formula: inhibition rate (%) = […] × 100, where Control OD is the absorbance of the negative control and Sample OD is the absorbance of the test sample. The IC50 values were determined with GraphPad Prism 5 through constructed dose–response curves.
(In general: Formazan colour is commonly taken as a measure of viable cells.)

The next data set relates to SW620 cells. Nature of the data set: Inhibition of SW620 cells. It counts as cell-based. The settings on record: Homo sapiens, SW-620, in the combination 9 at constant 0.25 μM.
The test system of another data set is MDA-MB-231 cells. Nature of the data set: Cell proliferation by live-cell imaging (IncuCyte), MDA-MB-231 TNBC cells. Format: cell-based. The following applies: 40 μM, 48 and 72 h. The text has this: TNBC represents approximately 10–15% of all breast cancers and is the most aggressive subtype of breast cancer. Patients with TNBC have a poor outcome compared to the other subtypes of breast cancer. In the breast cancer tissue, β-catenin is overexpressed compared to the normal tissue. The overexpression of β-catenin is associated with TNBC and lymph node metastasis. […] There is a quest for the development of new therapies to treat TNBC. […] Effects on cell proliferation of MDA-MB-231 TNBC cells were evaluated by live-time cell imaging using the Incucyte S5 system.
Figure 10 Inhibition of MDA-MB-231, HCC1806, and HCC1937 TNBC cell growth by compounds 5–10 and reference compounds 3, […], and iCRT3 at 40 μM. Cell growth inhibition was quantified using the IncuCyte cell-by-cell analysis software, by comparison with the growth of DMSO-treated cells at 72 h, set at 100% (mean ± SD, n = 3, one-way ANOVA, **p ≤ 0.01, ****p ≤ 0.0001).
Cell proliferation of breast cancer cell lines upon continuous treatment with select compounds was evaluated by the real-time quantitative live-cell imaging system. MDA-MB-231 (1500 cells/well), HCC1806 (2000 cells/well), and HCC1937 (3000 cells/well) were seeded in 96-well plates, treated with increasing doses of selected compounds and images (5 images/well) were acquired every 8 h for 3 days at 10× magnification in an IncuCyte SX5 live-content imaging system (Essen Bioscience) at 37 °C with 5% CO2. Images were analyzed using IncuCyte cell-by-cell analysis software to detect and quantify live cells (phase-contrast). The number of cells at each time point was quantified using IncuCyte cell-by-cell analysis software, and cell growth was evaluated as the normalized ratio between counted cells at each time point normalized to those counted at time 0. Graph drawing and statistical analyses were performed in GraphPad Prism according to the statistical tests described in the figure legends.

Turning to `O=S(=O)(Nc1ccc(-c2ccccn2)cc1)c1ccc(Br)cc1` [Compound 9, 4-Bromo-N-(4-(pyridin-2-yl)phenyl)benzenesulfonamide], the “% Luciferase Activity HCT116 (residual)” value in data set [1] stood at 4.33%. Moreover, in data set [2], the “association between β-catenin and Tcf-4 (co-immunoprecipitation)” value is reported as “completely abrogated the association”. For the same compound, the “improvement in SW480 cell growth inhibition compared with 5-FU” value with SW480 cells came to 6 fold. Besides, the EC50 in the data set on SW620 cells came to 37 µM. In addition, the “effect on MDA-MB-231 cell proliferation” value in the data set on MDA-MB-231 cells was “less effective”.

As usually defined, the EC50 is the concentration that produces a half-maximal response.
